Reference: patent US20210000988A1, “PHARMACEUTICAL COMPOSITION CONTAINING 211AT-LABELED AMINO ACID DERIVATIVE, AND METHOD FOR PRODUCING SAID PHARMACEUTICAL COMPOSITION” (OSAKA UNIVERSITY, priority 2018, published 2021)

Columns and labels:
[1] = tested on: human pancreatic cancer cell line (PANC-1); experiment: Cell-killing effect (cell survival rate); type: cell-based; details: PANC-1 cells
Description: 4. Examination of cell-killing effect of ^211At-AAMT A cell survival rate of the human pancreatic cancer cell line (PANC-1) administered with ^211At-AAMT under the same conditions as in Example 3 is shown in FIG. 6. […] On the other hand, the cellular uptake of ^211At-AAMT was reduced in the presence of the inhibitor BCH or methyltyrosine.

[2] = tested on: human pancreatic cancer cell line (PANC-1); experiment: Cellular uptake / accumulation in cancer cells (radiation dose remaining in the cells); type: cell-based
Procedure: A human pancreatic cancer cell line (PANC-1) was treated with ^211At-AAMT and cultured for a predetermined time. Then, the cells were washed to remove unincorporated ^211At-AAMT. The cellular uptake of ^211At-AAMT was measured from the radiation dose remaining in the cells.
Further, an effect of ascorbic acid on the cellular accumulation of ^211At-AAMT was also examined. The measurement result of the radiation dose in the human pancreatic cancer cell line in the absence and presence of ascorbic acid is shown in FIG. 5.

[3] = tested on: human pancreas cell line PANC-1; experiment: SPECT imaging in pancreatic cancer (PANC-1) transplanted mice; type: in vivo, Balb/c-nu/nu mice; details: PANC-1 transplanted mice (two animals), intravenous, 1 MBq, with 1% ascorbic acid, after 10 minutes
Procedure: Balb/c-nu/nu mice (female, 5 weeks old) purchased from Japan SLC, Inc. were acclimated in a breeding space for one week. A human pancreas cell line PANC-1 (RIKEN cell bank), which was maintained in an RPMI 1640 medium (Sigma-Aldrich) supplemented with 10% fetal bovine serum (Gibco) and 1% antibiotics (100×, FUJIFILM Wako Pure Chemical Corp.), was adjusted to a concentration of 5×10^6 cells/100 μL. Subsequently, the cells were mixed with Matrigel (Growth Factor Reduced, BD) in a 1:1 ratio, and the mixture was transplanted to a subcutaneous region of the hinder back of a mouse using a syringe (FN syringe 27G, Terumo Corp.). Subsequently, after one-month follow-up observation, the mouse having a sufficiently large tumor size was used in the experiment. These pancreatic cancer transplanted mice (animal 1: 25.5 g, animal 2: 30.2 g) were intravenously injected with ^211At-AAMT (with 1% ascorbic acid, at a dose of 1 MBq each), and SPECT imaging was performed after 10 minutes. Imaging was performed using a gamma camera E-Cam (Siemens) (imaging time: 10 minutes, collimator: low energy all purpose, pixel size: 1.2 mm×1.2 mm, matrix: 256×256, zoom: 2-fold, energy window: 79±20%).

Melanoma cells B16F10 = experiment: Treatment effect on melanoma metastasis to lung (nodule count and body weight); type: in vivo, C57BL/6 mice; details: B16F10 transplanted mice, intravenous
Description: C57BL/6 mice (female, 5 weeks old) purchased from Japan SLC, Inc. were used in the experiment after being acclimated in a breeding space for one week. Melanoma cells B16F10 (a high lung-metastatic cell line cloned from B16, RIKEN cell bank) were maintained in a D-MEM medium (high glucose, Sigma-Aldrich) supplemented with 10% fetal bovine serum (Gibco) and 1% antibiotics (100×, FUJIFILM Wako Pure Chemical Corp.). These cells in an amount of 2×10^5 cells were intravenously transplanted in each mouse. On the following day, the mice (N=5) was intravenously injected with ^211At-AAMT (with 1% ascorbic acid) at a dose of 0.0 MBq (control group), 0.1 MBq, or 1 MBq. Fourteen days later, the mice were dissected, and the number of nodules spread to the lung was visually counted. The results of the number of the nodules and a change in the body weight thus obtained were shown in FIG. 11 and FIG. 12, respectively.

[4] = SPECT imaging in normal rats; type: in vivo, rats (Wister); details: intravenous, 1 MBq, without ascorbic acid, 20 minutes to 1 hour
Procedure: Normal rats (Wister, 3 months old, male, 3 animals, body weight of 289.8±5.5 g) were intravenously injected with ^211At-AAMT (without ascorbic acid, 1 MBq), and SPECT imaging was performed after from 20 minutes to 1 hour. Imaging was performed using a gamma camera E-Cam (Siemens) (imaging time: 20 minutes, collimator: low energy all purpose, pixel size: 2.4 mm×2.4 mm×2.4 mm (SPECT), matrix: 128×128).

[5] = Image analysis of in vivo localization in the normal rat using a gamma camera
[6] = Effect of ascorbic acid on biodistribution in normal mice (organ radioactivity, gamma counter); type: in vivo, ddY mice; details: intravenous, one hour, 1% ascorbic acid addition group compared with ascorbic acid free group
Description: Next, an effect of ascorbic acid on biodistribution of ^211At-AAMT in the mouse body was compared. ddY mice (male, 5 weeks old) purchased from Japan SLC, Inc. were used after being acclimated for one week (6 weeks old at the time of experiment). ^211At-AAMT with 1% ascorbic acid or without ascorbic acid was intravenously injected in normal mice (N=3), and the mice were dissected after one hour. The organs were all put in polyethylene bags with zipper (A-4, 0.04 mm, SEISANNIPPONSHA Ltd.), and radioactivity of the organs was measured using Wizard^2 gamma counter (PerkinElmer).

[7] = In vitro stability by thin-layer chromatography (TLC), with and without sodium ascorbate; type: physicochemical
Description: The stability of ^211At-AAMT synthesized in Example 1 was compared in the presence and absence of sodium ascorbate using thin-layer chromatography (TLC).

[8] = In vivo stability: TLC of blood and urine after intravenous injection in normal rats; details: ascorbic acid 1% final concentration, after one hour
Procedure: ^211At-AAMT to which ascorbic acid was added at a final concentration of 1% was intravenously injected in normal rats, and, after one hour, blood and urine were collected and analyzed by thin-layer chromatography (TLC). As a thin layer plate, silica gel G60F254 (Merck KGaA) was used, and, as a development solvent, a mixture of butanol:water:acetic acid (4:1:1) was used (Nacalai Tesque, Inc.). The thin layer plate after development was analyzed by using a bioimaging analysis apparatus (Typhoon 7000, GE Healthcare) (FIG. 2). […] That is, it was shown that ^211At-AAMT to which ascorbic acid was added could stably exist in the living body without being metabolized or degraded.

[9] = tested on: human pancreatic cancer cell line (PANC-1); experiment: Administration to cancer-bearing mouse (tumor size and body weight); type: in vivo; details: PANC-1 cancer-bearing mouse, intravenous, 0.6 MBq per mouse, 7 days after administration
Description: A cancer-bearing mouse created by using the human pancreatic cancer cell line (PANC-1) was intravenously administered with ^211At-AAMT at a dose of 0.6 MBq per mouse. A change in the tumor size caused by the administration is shown in FIG. 8(A), while a change in the body weight of the cancer-bearing mouse is shown in FIG. 8(B).

Structure (SMILES) | cell survival rate with ^211At-AAMT in the presence of the inhibitor ([1]; competitor present) | uptake of ^211At-AAMT under competition with the inhibitor ([2]; PANC-1 cells, competitor added (Comparative example)) | cell-killing effect (cell survival rate) ([1]; same conditions as Example 3) | cancer cell-killing activity on addition of ascorbic acid ([1]; with versus without ascorbic acid) | visualization of the thyroid (SPECT) [3] | visualization of the tumor (SPECT) [3] | body weight change (Melanoma cells B16F10; 0.1 MBq or 1 MBq with 1% ascorbic acid versus control group) | number of melanoma nodules in the lung (Melanoma cells B16F10; 0.1 MBq or 1 MBq with 1% ascorbic acid versus control, fourteen days later) | accumulation of radioactivity (SPECT) [4] | excretion [5] | in vivo localization of radioactivity [5] | accumulation in the stomach and the kidney [6] | time in which almost all of the compound was degraded ([7]; in the absence of sodium ascorbate) | stability over time ([7]; in the presence of sodium ascorbate) | time at which uptake reached the maximum value ([2]; PANC-1 cells) | increase of cellular uptake in the cancer cells by addition of ascorbic acid ([2]; PANC-1 cells, with versus without ascorbic acid) | accumulation in PANC-1 on addition of ascorbic acid ([2]; ascorbic acid 0.1% versus absence) | radioactive species detected in blood and urine [8] | change in body weight [9] | change in tumor size [9]
NC1(C(=O)O)CC2CCC1C2 (centres unmarked) [BCH, 2-aminobicyclo[2.2.1]heptane-2-carboxylic acid, reference compound] | a significant reduction in the cell survival rate was not observed | reduced |  |  |  |  |  |  |  |  |  |  |  |  |  |  |  |  |  | 
CC(N)(Cc1ccc(O)c([211At])c1)C(=O)O (centres unmarked) [^211At-AAMT] |  |  | nearly all of the cancer cells could be killed | increased | the thyroid was not visualized | the tumors were clearly visualized in both cases | no difference in the body weight change | decreased more in the group with more doses | accumulation of the radioactivity was observed in the thyroid and the stomach in all animals | quick excretion of ^211At-AAMT by the kidney | accumulation of the radioactivity was observed in the kidney and its surrounding organs | significantly reduced | about 40 minutes | could stably exist even after the lapse of seven or more hours | about 10 minutes | increased about four times | significantly increased | only ^211At-AAMT was detected in both the blood and the urine, but free ^211At was not observed | a substantial reduction of the body weight was not observed | a regression effect of the tumor was obtained
